Results as given in ChEMBL document CHEMBL1201861, “Genomics of Drug Sensitity in Cancer screening data, Wellcome Trust Sanger Institute”.

How the values were obtained:
Assay in all cases: cells
Format in all cases: functional, cell-based, Homo sapiens
NB1 = conditions: Homo sapiens, NB1;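 note: reduction of NB1 cell proliferation, read out with a viability assay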
Description: SANGER: Inhibition of human NB1 cell growth in a cell viability assay.

UACC-812 = conditions: Homo sapiens, UACC-812
Description: SANGER: Inhibition of human UACC-812 cell growth in a cell viability assay.

SIMA = conditions: Homo sapiens, SIMA;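 note: growth inhibition of SIMA cells, measured with a cell viability readout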
Description: SANGER: Inhibition of human SIMA cell growth in a cell viability assay.

LC4-1 = conditions: Homo sapiens, LC4-1;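 note: growth inhibition of LC4-1 cells, read out with a cell viability assay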
Description: SANGER: Inhibition of human LC4-1 cell growth in a cell viability assay.

L-540 = conditions: Homo sapiens, L-540;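 note: growth inhibition of the human L-540 cell line, read out with a viability assay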
Description: SANGER: Inhibition of human L-540 cell growth in a cell viability assay.

CPC-N = conditions: Homo sapiens, CPC-N;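 note: growth inhibition of CPC-N cells, with a cell viability assay as the readout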
Description: SANGER: Inhibition of human CPC-N cell growth in a cell viability assay.

RPMI-6666 = conditions: Homo sapiens, RPMI-6666
Description: SANGER: Inhibition of human RPMI-6666 cell growth in a cell viability assay.

TALL-1 = conditions: Homo sapiens, TALL-1;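 note: growth inhibition of cultured human TALL-1 cells, read out by a cell viability assay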
Description: SANGER: Inhibition of human TALL-1 cell growth in a cell viability assay.

Daudi = conditions: Homo sapiens, Daudi;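 note: growth inhibition of Daudi cells, read out by a viability assay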
Description: SANGER: Inhibition of human Daudi cell growth in a cell viability assay.

OPM-2 = conditions: Homo sapiens, OPM-2;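 note: growth of OPM-2 cells measured with a viability assay, IC50 for suppression of proliferation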
Description: SANGER: Inhibition of human OPM-2 cell growth in a cell viability assay.

NCI-H1436 = conditions: Homo sapiens, NCI-H1436;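 note: growth suppression of human NCI-H1436 cells, determined with a cell viability readout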
Description: SANGER: Inhibition of human NCI-H1436 cell growth in a cell viability assay.

DG-75 = conditions: Homo sapiens, DG-75;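 note: growth inhibition of DG-75 cells, read out with a cell viability assay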
Description: SANGER: Inhibition of human DG-75 cell growth in a cell viability assay.

NCI-H524 = conditions: Homo sapiens, NCI-H524;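 note: growth inhibition of human NCI-H524 cells, read out through a cell viability assay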
Description: SANGER: Inhibition of human NCI-H524 cell growth in a cell viability assay.

RL = conditions: Homo sapiens, RL
Description: SANGER: Inhibition of human RL cell growth in a cell viability assay.

Row | SMILES | IC50 (NB1) [nM] | IC50 (UACC-812) [nM] | IC50 (SIMA) [nM] | IC50 (LC4-1) [nM] | IC50 (L-540) [nM] | IC50 (CPC-N) [nM] | IC50 (RPMI-6666) [nM] | IC50 (TALL-1) [nM] | IC50 (Daudi) [nM] | IC50 (OPM-2) [nM] | IC50 (NCI-H1436) [nM] | IC50 (DG-75) [nM] | IC50 (NCI-H524) [nM] | IC50 (RL) [nM]
1 | COc1cc(N2CCN(C)CC2)ccc1Nc1ncc2c(n1)N(C)c1ccccc1C(=O)N2C | > 8000 | > 8000 | > 8000 | 4020 | > 8000 | > 8000 | 7860 | > 8000 | > 8000 | 3300 | > 8000 | 5610 | > 8000 | 2780
2 | COc1cc(-c2nn([C@H]3CC[C@H](N4CCN(C(C)=O)CC4)CC3)c3ncnc(N)c23)ccc1NC(=O)c1cc2ccccc2n1C | > 5120 |  | > 5120 | > 5120 | > 5120 | > 5120 | 1580 | > 5120 | > 5120 | > 5120 | 3190 | > 5120 | > 5120 | > 5120
3 | OCCCNc1cc(-c2ccnc(Nc3cccc(Cl)c3)n2)ccn1 | 84.3 |  | > 256 | 71.3 | 193 | > 256 | 50.4 | 94.1 | 55.3 | 153 | 251 | 111 | > 256 | > 256
4 | Cc1ccc(-c2c(C(=O)CCl)n(CCCO)c3ncnc(N)c23)cc1 | > 4000 |  | > 4000 | > 4000 | > 4000 | > 4000 | 2330 | > 4000 | > 4000 | > 4000 | > 4000 | > 4000 | > 4000 | > 4000
5 | C#Cc1cccc(Nc2ncnc3cc(OCCOC)c(OCCOC)cc23)c1 [ERLOTINIB] |  | > 2000 | > 2000 | > 2000 | > 2000 | > 2000 | > 2000 |  | > 2000 | > 2000 |  | > 2000 | > 2000 | > 2000
6 | COc1cc2ncn(-c3cc(OCc4ccccc4S(C)(=O)=O)c(C#N)s3)c2cc1OC [GSK-319347A] | > 5000 | > 5000 | > 5000 | > 5000 | > 5000 | > 5000 | > 5000 | > 5000 | > 5000 | > 5000 | > 5000 | > 5000 | > 5000 | > 5000
7 | COc1cc2ncn(-c3cc(OCc4ccccc4C(F)(F)F)c(C(N)=O)s3)c2cc1OC [GW843682X] | 35.1 |  | > 256 | 54.5 | 121 | 41.2 | 82.6 | 13 | 34.7 | 44.2 | > 256 | 63.3 | 65.4 | > 256
8 | CC(=O)O[C@H]1C(=O)[C@@]2(C)[C@H]([C@H](OC(=O)c3ccccc3)[C@]3(O)C[C@H](OC(=O)[C@H](O)[C@@H](NC(=O)c4ccccc4)c4ccccc4)C(C)=C1C3(C)C)[C@]1(OC(C)=O)CO[C@@H]1C[C@@H]2O [PACLITAXEL] | 26.9 |  | > 102 | 43.5 | 46.4 | 30.8 | 21.5 | 50.4 | 17.1 | 36.7 | 12.3 | 69 | 35.3 | > 102
9 | N[C@@H](CSC(c1ccccc1)(c1ccccc1)c1ccccc1)C(=O)O [S-TRITYL-L-CYSTEINE] | 2940 |  | > 5120 | 2020 | > 5120 | 2460 | > 5120 | 2530 | 1170 | 3290 | 889 | > 5120 | 1030 | > 5120
10 | CC[C@H](CO)Nc1nc(NCc2ccccc2)c2ncn(C(C)C)c2n1 [SELICICLIB] | 12300 | > 16000 | > 16000 | > 16000 | > 16000 | > 16000 | 13900 | > 16000 | > 16000 | > 16000 | > 16000 | > 16000 | > 16000 | > 16000
11 | CCN(CC)CCNC(=O)c1c(C)[nH]c(/C=C2\C(=O)Nc3ccc(F)cc32)c1C [SUNITINIB] | 1960 |  | > 8000 | 4380 | > 8000 | > 8000 | 3540 | > 8000 | > 8000 | 3060 | > 8000 | 6430 | > 8000 | > 8000
